Consider one compound from patent publication US11497813B2, “Bortezomib conjugates and methods using same” (Frank EBETINO et al., priority 2015, dated 2022).

The assay has as its system fractured mice. Kind of assay: Open tibial fracture healing in WT mice. Format: in vivo, mouse. As to the method:
WT mice that received an open tibial fracture were treated with Btz (0.6 mg/kg body weight, ip) or vehicle at day 1, 3, 5, 7, and sacrificed at various days post-fracture. FIG. 2A is an image of the structure of Bortezomib. FIG. 2B is a graph depicting μCT data analyses of callus size from 10 days post-fracture. N+4 mice/group. FIG. 2C is a series of images of representative histology of fractured tibiae stained with alcian blue hematoxylin/orange G eosin showing cartilage (blue) and bone (pink) formation. Histomorphometric measurements were performed with a Visiopharm Imaging Analysis software system. N=3 mice/group. FIG. 2D is a series of graphs depicting data of biomechanical testing of tibiae from 28 days after fracture. N=5 mice/group. FIG. 2E is a series of images of spectra depicting data of immune-phenotyping of callus cells from 7 days post-fracture. FIG. 2F is a series of images of immunoblots depicting protein expression levels of total Ub-proteins and JunB and Runx2 levels in calluses from 10 days post-fracture. *p<0.05 vs. vehicle group.

Consider `CC(C)C[C@H](NC(=O)[C@H](Cc1ccccc1)NC(=O)c1cnccn1)B(O)O` [Btz, [(1R)-3-methyl-1-[[(2S)-1-oxo-3-phenyl-2[(pyrazinylcarbonyl)amino]propyl]amino]butyl] boronic acid], for which, under “0.6 mg/kg ip day 1, 3, 5, 7, JunB and Runx2 in calluses”, the “expression of osteoblast positive regulators” value was “increases”. Moreover, the MSC numbers result (0.6 mg/kg ip day 1, 3, 5, 7, callus cells) is reported as “increases”. In addition, where the note is “fractured mice”, the “Nestin+ MPCs” value was “increased”, the bone strength entry is “increases bone strength” and the callus formation is “accelerates callus formation”. Further, under “short-term treatment”, the “Ub-proteins in fracture calluses” value is “accumulation of Ub-proteins” and the fracture healing entry is “increases fracture healing”.
